Measured values reported in the CheMixHub viscosity set.

Experiment: xn = mol fraction of the nth substance listed

Nc1cccc(Cl)c1 + Brc1ccccc1
100 kPa
Details	viscosity [mPa·s]
313.15 K, x1 = 0.6782	2.875
318.15 K, x1 = 0.0902	1.155

CCC(=O)O + C1CCCCC1
303.15 K, 101 kPa
Details	viscosity [mPa·s]
x2 = 0.1973	0.8074
x2 = 0.286	0.771
x2 = 0.384	0.7319
x2 = 0.4987	0.7121
x2 = 0.5994	0.7197
x2 = 0.6998	0.7155
x2 = 0.8991	0.7582

CCC(=O)O + C1CCOC1
298.15 K, 101 kPa
Details	viscosity [mPa·s]
x2 = 0.1025	1.067
x2 = 0.2043	1.069
x2 = 0.3057	1.033
x2 = 0.4065	0.9675
x2 = 0.5067	0.8745
x2 = 0.6065	0.7835
x2 = 0.7056	0.6858
x2 = 0.8043	0.5947
x2 = 0.9024	0.5179

CCC(=O)O + C1COCO1
298.15 K, 101 kPa
Details	viscosity [mPa·s]
x2 = 0.1	1.018
x2 = 0.2	1.003
x2 = 0.3	0.9794
x2 = 0.4	0.9457
x2 = 0.5	0.9011
x2 = 0.6	0.8454
x2 = 0.7	0.788
x2 = 0.8	0.7223
x2 = 0.9	0.6544

CC12CCC(CC1)C(C)(C)O2 + C=CC(C)(O)CCC=C(C)C
viscosity [mPa·s], 101.33 kPa
Details	298.15 K	313.15 K
x1 = 0.0536	4.296	2.489
x1 = 0.1357	4.062	2.401
x1 = 0.2205	3.835	2.316
x1 = 0.3081	3.614	2.236
x1 = 0.4288	3.347	2.138
x1 = 0.562	3.093	2.048
x1 = 0.605	3.019	2.023
x1 = 0.6809	2.9	1.983
x1 = 0.8027	2.74	1.933
x1 = 0.8783	2.66	1.91
x1 = 0.9599	2.591	1.892

CCC(=O)O + CC#N
101 kPa
Details	viscosity [mPa·s]
298.15 K, x1 = 0.0727	0.3871
298.15 K, x1 = 0.1499	0.4326
298.15 K, x1 = 0.2322	0.49
298.15 K, x1 = 0.3199	0.5588
298.15 K, x1 = 0.4136	0.6378
298.15 K, x1 = 0.5141	0.7247
298.15 K, x1 = 0.6221	0.8156
298.15 K, x1 = 0.7383	0.9048
298.15 K, x1 = 0.864	0.9833
298.35 K, x1 = 0.00118	0.3554
298.36 K, x1 = 0.000675	0.3524
298.37 K, x1 = 0.001631	0.3536
299.33 K, x1 = 0.002851	0.3563
301.03 K, x1 = 0.00118	0.3451
301.05 K, x1 = 0.000675	0.3437
301.96 K, x1 = 0.002851	0.3511
302.04 K, x1 = 0.001631	0.3472
303.03 K, x1 = 0.00118	0.338
303.04 K, x1 = 0.000675	0.3378
304.04 K, x1 = 0.001631	0.3356
304.09 K, x1 = 0.002851	0.3401
305.01 K, x1 = 0.00118	0.3316
305.04 K, x1 = 0.000675	0.3319
305.99 K, x1 = 0.002851	0.3324
306.1 K, x1 = 0.001631	0.3288
308.03 K, x1 = 0.00118	0.3228
308.04 K, x1 = 0.000675	0.3223
308.15 K, x1 = 0.0727	0.3411
308.15 K, x1 = 0.1499	0.3841
308.15 K, x1 = 0.2322	0.4373
308.15 K, x1 = 0.3199	0.4999
308.15 K, x1 = 0.4136	0.5703
308.15 K, x1 = 0.5141	0.646
308.15 K, x1 = 0.6221	0.7227
308.15 K, x1 = 0.7383	0.7943
308.15 K, x1 = 0.864	0.8513
309 K, x1 = 0.002851	0.3236
309.06 K, x1 = 0.001631	0.3198
311.01 K, x1 = 0.000675	0.3134
311.01 K, x1 = 0.00118	0.3139
311.96 K, x1 = 0.002851	0.3161
312.06 K, x1 = 0.001631	0.3112
318.15 K, x1 = 0.0727	0.3007
318.15 K, x1 = 0.1499	0.345
318.15 K, x1 = 0.2322	0.3948
318.15 K, x1 = 0.3199	0.4493
318.15 K, x1 = 0.4136	0.5074
318.15 K, x1 = 0.5141	0.567
318.15 K, x1 = 0.6221	0.6251
318.15 K, x1 = 0.7383	0.6772
318.15 K, x1 = 0.864	0.7168

Nc1cccc(Cl)c1 + CC(=O)c1ccccc1
viscosity [mPa·s], 100 kPa
Details	x1 = 0.0807	x1 = 0.1719	x1 = 0.2629	x1 = 0.3608	x1 = 0.4656	x1 = 0.5646	x1 = 0.6658	x1 = 0.7765	x1 = 0.8859
303.15 K	1.647	1.812	1.993	2.206	2.459	2.723	3.022	3.386	3.788
308.15 K	1.538	1.688	1.85	2.041	2.266	2.5	2.764	3.084	3.436
313.15 K	1.38	1.515	1.66	1.83	2.031	2.239	2.474	2.758	3.069
318.15 K	1.218	1.337	1.466	1.616	1.793	1.976	2.183	2.433	2.707

ClCCCCCl + CC(C)(C)O
viscosity [mPa·s], 101 kPa
Details	x1 = 0.1005	x1 = 0.2009	x1 = 0.2964	x1 = 0.435	x1 = 0.5026	x1 = 0.602	x1 = 0.7061	x1 = 0.8038	x1 = 0.9014
298.15 K	2.618	1.826	1.482	1.315	1.257	1.202	1.18	1.182	1.208
313.15 K	1.495	1.18	1.035	0.9459	0.9313	0.9139	0.916	0.9291	0.9613

Nc1cccc(Cl)c1 + CC(C)(C)O
viscosity [mPa·s], 101 kPa
Details	x1 = 0.0912	x1 = 0.1842	x1 = 0.279	x1 = 0.3758	x1 = 0.4745	x1 = 0.5753	x1 = 0.6782	x1 = 0.7832	x1 = 0.8904
303.15 K	3.097	3.238	3.382	3.525	3.659	3.784	3.901	4.013	4.127
308.15 K	2.819	2.953	3.085	3.213	3.333	3.445	3.546	3.644	3.742
313.15 K	2.283	2.423	2.562	2.697	2.828	2.954	3.075	3.192	3.308
318.15 K	1.875	2.015	2.153	2.289	2.419	2.544	2.665	2.781	2.899

C1C[C@@H]2[C@H]3CC[C@H](C3)[C@@H]2C1 + CC(C)CC(C)(C)C
viscosity [mPa·s], 100 kPa
Details	x1 = 0.1	x1 = 0.2002	x1 = 0.3008	x1 = 0.4003	x1 = 0.5008	x1 = 0.5997	x1 = 0.6982	x1 = 0.8002	x1 = 0.9012
293.15 K	0.593	0.682	0.795	0.929	1.102	1.316	1.582	1.959	2.405
298.15 K	0.563	0.643	0.745	0.868	1.026	1.219	1.457	1.799	2.194
303.15 K	0.532	0.608	0.701	0.813	0.958	1.132	1.347	1.657	2.008
308.15 K	0.506	0.574	0.661	0.764	0.896	1.056	1.251	1.534	1.844
313.15 K	0.483	0.546	0.626	0.719	0.842	0.987	1.164	1.42	1.701

C1C[C@@H]2[C@H]3CC[C@H](C3)[C@@H]2C1 + CC(C)CO
viscosity [mPa·s], 100 kPa
Details	x1 = 0.1002	x1 = 0.2	x1 = 0.3002	x1 = 0.4003	x1 = 0.4998	x1 = 0.6003	x1 = 0.7002	x1 = 0.7994	x1 = 0.8979
293.15 K	3.668	3.397	3.217	3.04	2.883	2.814	2.769	2.78	2.848
298.15 K	3.135	2.923	2.772	2.644	2.541	2.489	2.47	2.493	2.563
303.15 K	2.692	2.526	2.408	2.318	2.247	2.219	2.219	2.249	2.323
308.15 K	2.325	2.196	2.108	2.044	1.998	1.99	2.003	2.037	2.113
313.15 K	2.02	1.92	1.856	1.814	1.787	1.79	1.814	1.854	1.929
318.15 K	1.764	1.689	1.645	1.616	1.607	1.618	1.646	1.695	1.77
323.15 K	1.551	1.494	1.465	1.448	1.452	1.471	1.507	1.555	1.627

ClCCCCCl + CC(C)CO
viscosity [mPa·s], 101 kPa
Details	x1 = 0.0994	x1 = 0.1958	x1 = 0.2938	x1 = 0.4026	x1 = 0.5	x1 = 0.6041	x1 = 0.7031	x1 = 0.801	x1 = 0.8984
298.15 K	2.524	2.027	1.715	1.501	1.371	1.285	1.236	1.208	1.215
313.15 K	1.648	1.381	1.207	1.097	1.02	0.977	0.9567	0.9491	0.9661

CCC(=O)O + CC(C)O
viscosity [mPa·s], 101 kPa
Details	x2 = 0.007361	x2 = 0.0288	x2 = 0.04944	x2 = 0.06903	x2 = 0.1	x2 = 0.1291	x2 = 0.1819	x2 = 0.2287
298.15 K	2.67	2.6	2.54	2.475	2.4	2.342	2.277	2.22
308.15 K	1.99	1.948	1.915	1.882	1.836	1.8	1.75	1.71
318.15 K	1.54	1.52	1.5	1.484	1.454	1.428	1.392	1.367

C1C[C@@H]2[C@H]3CC[C@H](C3)[C@@H]2C1 + CC(C)OC(C)C
viscosity [mPa·s], 101.33 kPa
Details	x2 = 0.1	x2 = 0.2043	x2 = 0.3168	x2 = 0.4	x2 = 0.4997	x2 = 0.5937	x2 = 0.703	x2 = 0.8066	x2 = 0.9085
293.15 K	2.279	1.725	1.309	1.074	0.865	0.719	0.592	0.493	0.412
298.15 K	2.062	1.572	1.206	0.995	0.802	0.666	0.556	0.473	0.391
303.15 K	1.88	1.441	1.116	0.926	0.76	0.631	0.532	0.454	0.376
308.15 K	1.712	1.324	1.026	0.861	0.706	0.593	0.497	0.426	0.357
313.15 K	1.573	1.226	0.95	0.799	0.659	0.558	0.469	0.402	0.338

CCC(=O)O + CCC(C)=O
viscosity [mPa·s], 101 kPa
Details	x2 = 0.0847	x2 = 0.1723	x2 = 0.2585	x2 = 0.357	x2 = 0.4544	x2 = 0.5554	x2 = 0.6602	x2 = 0.7691	x2 = 0.8822
293.15 K	1.038	0.9722	0.9093	0.8393	0.7718	0.7038	0.6354	0.5665	0.4974
303.15 K	0.9022	0.846	0.7921	0.7324	0.6751	0.6177	0.556	0.5027	0.4455
313.15 K	0.7975	0.7494	0.7031	0.6516	0.6019	0.5519	0.5015	0.4508	0.4

ClCCCCCl + CCC(C)O
101 kPa
Details	viscosity [mPa·s]
298.15 K, x1 = 0.1012	2.118
298.15 K, x1 = 0.2021	1.633
298.15 K, x1 = 0.2996	1.408
298.15 K, x1 = 0.4004	1.281
298.15 K, x1 = 0.4967	1.199
298.15 K, x1 = 0.5999	1.158
298.15 K, x1 = 0.7024	1.143
298.15 K, x1 = 0.7987	1.151
298.15 K, x1 = 0.899	1.199
313.15 K, x1 = 0.1002	1.369
313.15 K, x1 = 0.2041	1.123
313.15 K, x1 = 0.3125	0.9913
313.15 K, x1 = 0.3996	0.9298
313.15 K, x1 = 0.5046	0.8882
313.15 K, x1 = 0.6034	0.8716
313.15 K, x1 = 0.7008	0.8721
313.15 K, x1 = 0.8052	0.8932
313.15 K, x1 = 0.9001	0.9458
